Common to all, as to assay type: cell-based
The test system of test [1] is Acinetobacter baumannii FADDI-AB030. Briefly: microbe, parasite or virus in culture. Conditions: FADDI-AB030. In short, it runs like this: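 Broth microdilution MIC in cation-adjusted Mueller-Hinton broth per CLSI M100-S24; lipopeptides tested as TFA salts. FADDI-AB030 is a multidrug-resistant clinical isolate. Polymyxin B sulphate served as control.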
For test [2], the system named is Klebsiella pneumoniae FADDI-KP032. Conditions: FADDI-KP032. In outline:
(§1)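 MICs were determined by broth microdilution in cation-adjusted Mueller-Hinton broth following the CLSI M100-S24 protocol. Lipopeptides were tested as trifluoroacetic acid salts against polymyxin-susceptible Gram-negative strains, with polymyxin B sulphate as control. FADDI-PA022 and FADDI-AB034 are multidrug-resistant clinical isolates.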

Test [3] relates to Enterobacter cloacae FADDI-EC003. The settings on record: FADDI-EC003. In outline:
as §1

For test [4], the system named is Klebsiella pneumoniae Kp BM1. The settings on record: Kp BM1. In outline:
(§2)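 Lipopeptide TFA salts were serially diluted in cation-adjusted Mueller-Hinton broth, inoculated with polymyxin-susceptible Gram-negative bacteria and scored for MIC according to CLSI guidance (M100-S24). Polymyxin B sulphate was included as comparator.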

Test [5] deals with Enterobacter cloacae FADDI-EC001. The settings on record: FADDI-EC001. In short, it runs like this:
as §2

Test [6] has as its system Pseudomonas aeruginosa ATCC 27853. Conditions: ATCC 27853. In short, it runs like this: as §1
For test [7], the system named is Acinetobacter baumannii FADDI-AB034. Conditions: FADDI-AB034. In short, it runs like this: as §1
The subject of test [8] is Pseudomonas aeruginosa FADDI-PA038. Conditions: FADDI-PA038. In outline:
as §1

Test [9] has as its system Klebsiella pneumoniae FADDI-KP022. Conditions: FADDI-KP022. In outline:
as §1

Test [10] deals with Pseudomonas aeruginosa FADDI-PA01. The settings on record: FADDI-. In short, it runs like this:
as §1

Test [11] has as its system Acinetobacter baumannii ATCC 17978. Conditions: ATCC 17978. In short, it runs like this: as §1
For test [12], the system named is Pseudomonas aeruginosa FADDI-PA022. Conditions: FADDI-PA022. In outline:
as §1

Test [13] relates to Enterobacter cloacae FADDI-EC006. Conditions: FADDI-EC006. In outline: as §1

Our source for the Minimum inhibitory concentration values is patent US11225505B2, “Antimicrobial polymyxin derivative compounds” (MONASH UNIVERSITY, priority 2015, dated 2022).

In brackets after ≈: the same amount, converted by molar mass. Where a SMILES comes first, the peptide text is derived from it. Bridges are numbered along the chain shown (N, C = ends). [ ]: non-standard residue; d: D form. The star is where a group is joined. X18 = O=C(c1cc(-c2ccccc2)[nH]n1)*; X44 = O=C(c1cc(-c2ccccc2)no1)*; X20 = O=C(c1ccc(C(F)(F)F)s1)*; X62 = O=C(c1cc(Br)c(Br)s1)*; X50 = O=C(c1sc(Br)cc1Br)*; Dab = NCC[C@H](N)C(=O)O; X10 = O=C(c1cc(Br)cs1)*; Abu = CC[C@H](N)C(=O)O; Dap = NC[C@H](N)C(=O)O

In the case of `CC[C@@H]1NC(=O)[C@@H](CC(C)C)NC(=O)[C@H](CCN)NC(=O)[C@@H](NC(=O)[C@H](CN)NC(=O)[C@@H](NC(=O)[C@H](CCN)NC(=O)c2cc(Br)c(Br)s2)[C@@H](C)O)CCNC(=O)[C@H]([C@@H](C)O)NC(=O)[C@H](CCN)NC(=O)[C@H](CCN)NC1=O` [Compound 83] (X62-[Dab]T[Dap][Dab][Dab][dL][Abu][Dab][Dab]T; lactam 4-C), the Minimum inhibitory concentration in test [1] is less than 0.125 µg/mL; in [2] it was 0.25 µg/mL (≈ 0.199 µM); in test [3], 0.25 µg/mL (≈ 0.199 µM); in [4], less than 0.125 µg/mL; in [5], 0.5 µg/mL (≈ 0.398 µM); in [6], 0.25 µg/mL (≈ 0.199 µM). Also, the Minimum inhibitory concentration was less than 0.125 µg/mL in test [7]; 0.5 µg/mL (≈ 0.398 µM) in test [8]; less than 0.125 µg/mL in test [9]; 0.25 µg/mL (≈ 0.199 µM) in test [10]; 0.25 µg/mL (≈ 0.199 µM) in test [11]; 0.25 µg/mL (≈ 0.199 µM) in test [12]. The Minimum inhibitory concentration in test [13] was less than 0.125 µg/mL.

Turning to `CC[C@@H]1NC(=O)[C@@H](CC(C)C)NC(=O)[C@H](CCN)NC(=O)[C@@H](NC(=O)[C@H](CN)NC(=O)[C@@H](NC(=O)[C@H](CCN)NC(=O)c2cc(-c3ccccc3)[nH]n2)[C@@H](C)O)CCNC(=O)[C@H]([C@@H](C)O)NC(=O)[C@H](CCN)NC(=O)[C@H](CCN)NC1=O` [Compound 84] (X18-[Dab]T[Dap][Dab][Dab][dL][Abu][Dab][Dab]T; lactam 4-C), the Minimum inhibitory concentration is 0.5 µg/mL (≈ 0.432 µM) in test [1]; 0.25 µg/mL (≈ 0.216 µM) in [2]; less than 0.125 µg/mL in test [3]; less than 0.125 µg/mL in test [4]; 0.25 µg/mL (≈ 0.216 µM) in test [5]; 0.25 µg/mL (≈ 0.216 µM) in test [6]. Also, the Minimum inhibitory concentration was 0.5 µg/mL (≈ 0.432 µM) in test [7]; 0.5 µg/mL (≈ 0.432 µM) in test [8]; less than 0.125 µg/mL in test [9]; 0.25 µg/mL (≈ 0.216 µM) in [10]; 0.5 µg/mL (≈ 0.432 µM) in test [11]; 0.25 µg/mL (≈ 0.216 µM) in [12]. For the same molecule, the Minimum inhibitory concentration in test [13] is less than 0.125 µg/mL.

Take `CC[C@@H]1NC(=O)[C@@H](CC(C)C)NC(=O)[C@H](CCN)NC(=O)[C@@H](NC(=O)[C@H](CN)NC(=O)[C@@H](NC(=O)[C@H](CCN)NC(=O)c2sc(Br)cc2Br)[C@@H](C)O)CCNC(=O)[C@H]([C@@H](C)O)NC(=O)[C@H](CCN)NC(=O)[C@H](CCN)NC1=O` [Compound 85] (X50-[Dab]T[Dap][Dab][Dab][dL][Abu][Dab][Dab]T; lactam 4-C): the Minimum inhibitory concentration in test [1] is less than 0.125 µg/mL; in test [2], less than 0.125 µg/mL; in test [3] it was 0.25 µg/mL (≈ 0.199 µM); in [4], 0.25 µg/mL (≈ 0.199 µM); in [5], 0.25 µg/mL (≈ 0.199 µM); in test [6], 0.25 µg/mL (≈ 0.199 µM). Moreover, the Minimum inhibitory concentration was 0.25 µg/mL (≈ 0.199 µM) in [7]; 0.5 µg/mL (≈ 0.398 µM) in test [8]; less than 0.125 µg/mL in test [9]; 0.25 µg/mL (≈ 0.199 µM) in test [10]; less than 0.125 µg/mL in [11]; 0.25 µg/mL (≈ 0.199 µM) in test [12]. This molecule also registered a Minimum inhibitory concentration in test [13] of less than 0.125 µg/mL.

In the case of `CC[C@@H]1NC(=O)[C@@H](CC(C)C)NC(=O)[C@H](CCN)NC(=O)[C@@H](NC(=O)[C@H](CN)NC(=O)[C@@H](NC(=O)[C@H](CCN)NC(=O)c2ccc(C(F)(F)F)s2)[C@@H](C)O)CCNC(=O)[C@H]([C@@H](C)O)NC(=O)[C@H](CCN)NC(=O)[C@H](CCN)NC1=O` [Compound 86] (X20-[Dab]T[Dap][Dab][Dab][dL][Abu][Dab][Dab]T; lactam 4-C), the Minimum inhibitory concentration in test [1] was 0.25 µg/mL (≈ 0.215 µM); in [2] it was less than 0.125 µg/mL; in test [3] it was 0.25 µg/mL (≈ 0.215 µM); in test [4] it was 0.25 µg/mL (≈ 0.215 µM); in [5] it was less than 0.125 µg/mL; in test [6], 0.5 µg/mL (≈ 0.429 µM). The Minimum inhibitory concentration in [7] was less than 0.125 µg/mL; in test [8], 1 µg/mL (≈ 0.858 µM); in test [9], less than 0.125 µg/mL; in test [10], 0.5 µg/mL (≈ 0.429 µM); in test [11] it was less than 0.125 µg/mL; in [12] it was 0.5 µg/mL (≈ 0.429 µM). For the same molecule, the Minimum inhibitory concentration in test [13] is 0.25 µg/mL (≈ 0.215 µM).

With `CC[C@@H]1NC(=O)[C@@H](CC(C)C)NC(=O)[C@H](CCN)NC(=O)[C@@H](NC(=O)[C@H](CN)NC(=O)[C@@H](NC(=O)[C@H](CCN)NC(=O)c2cc(-c3ccccc3)no2)[C@@H](C)O)CCNC(=O)[C@H]([C@@H](C)O)NC(=O)[C@H](CCN)NC(=O)[C@H](CCN)NC1=O` [Compound 87] (X44-[Dab]T[Dap][Dab][Dab][dL][Abu][Dab][Dab]T; lactam 4-C), the Minimum inhibitory concentration in [1] is 0.5 µg/mL (≈ 0.432 µM); in test [2], 0.25 µg/mL (≈ 0.216 µM); in test [3], less than 0.125 µg/mL; in test [4] it was 0.5 µg/mL (≈ 0.432 µM); in test [5], less than 0.125 µg/mL; in [6], 1 µg/mL (≈ 0.863 µM). Further, the Minimum inhibitory concentration in test [7] was 0.5 µg/mL (≈ 0.432 µM); in [8], 1 µg/mL (≈ 0.863 µM); in test [9], less than 0.125 µg/mL; in test [10] it was 0.5 µg/mL (≈ 0.432 µM); in test [11], 0.5 µg/mL (≈ 0.432 µM); in test [12], 0.5 µg/mL (≈ 0.432 µM). In test [13], this molecule came in with a Minimum inhibitory concentration of 0.25 µg/mL (≈ 0.216 µM).

Take `CC[C@@H]1NC(=O)[C@@H](CC(C)C)NC(=O)[C@H](CCN)NC(=O)[C@@H](NC(=O)[C@H](CN)NC(=O)[C@@H](NC(=O)[C@H](CCN)NC(=O)c2cc(Br)cs2)[C@@H](C)O)CCNC(=O)[C@H]([C@@H](C)O)NC(=O)[C@H](CCN)NC(=O)[C@H](CCN)NC1=O` [Compound 88] (X10-[Dab]T[Dap][Dab][Dab][dL][Abu][Dab][Dab]T; lactam 4-C): the Minimum inhibitory concentration in test [1] is 0.5 µg/mL (≈ 0.425 µM); in [2], 0.5 µg/mL (≈ 0.425 µM); in test [3], 0.5 µg/mL (≈ 0.425 µM); in test [4] it was 0.25 µg/mL (≈ 0.213 µM); in [5], less than 0.125 µg/mL; in test [6] it was 0.5 µg/mL (≈ 0.425 µM). The Minimum inhibitory concentration in test [7] was 0.5 µg/mL (≈ 0.425 µM); in [8], 0.5 µg/mL (≈ 0.425 µM); in [9], less than 0.125 µg/mL; in test [10] it was 0.5 µg/mL (≈ 0.425 µM); in test [11], 0.5 µg/mL (≈ 0.425 µM); in test [12], 0.5 µg/mL (≈ 0.425 µM). Moreover, the Minimum inhibitory concentration in test [13] was 0.5 µg/mL (≈ 0.425 µM).
